Assay [1] has as its system microorganisms. Description: Morphology, biofilm and growth disrupting peptides (Table 5). It is filed as cell-based. Further details: key: A: Peptide aggregates; B: Less hyphal formation; Clumps; Diffuse clumps and small polyps; F: Diffuse growth; H: Thin; I: Growth inhibition; Microcolony formation; Rippled; Small polyps; Thick; W: Halo formation on top, microlonies on bottom. From the text: In certain embodiments peptides that induce alterations in phenotype or other biological activities can also be used as antimicrobial effector moieties.

Assay [2] has as its system microorganisms. Description: Peptide activities: targeting/binding, antimicrobial, growth or phenotype altering (Tables 7, 8). The conditions noted are these: peptides having multiple activities. The class given is cell-based.
In assay [3] the test system is microorganisms. Description: Targeting peptide binding to target microorganisms (Tables 3, 10, 12). The conditions noted are these: microorganism(s) the targeting peptide binds, preferably 1x PBS.
Where [4] appears, read: binding in aqueous buffers varied with peptide solubility.
Where [5] appears, read: binding in aqueous buffers that varied with peptide solubility.

The results in this text go back to patent US20110039763A1, “TARGETED ANTIMICROBIAL MOIETIES” (C3 JIAN, INC., priority 2009, published 2011).

“Also recorded” adds a separate entry of the source.

As to LNFRAENKILEKIHISLIDTVEGSA [PF-575], the “Organism, effect” value is recorded as “C. jeikeium (A)” in assay [1] (C. jeikeium), “C. jejuni (R)” in assay [1] (C. jejuni), “P. aeruginosa (A)” in assay [1] (P. aeruginosa) and “S. pneumoniae (A)” in assay [1] (S. pneumoniae). Also, in assay [2], the Activities entry is given as “G B”. Besides, the “Target(s)” value in assay [3] (setting [4]) was “M. luteus and E. coli and C. albicans and MRSA and S. pneumoniae and E. faecalis and C. jeikeium”.

Consider LSPRPIIVSRRSRADNNNDWSR [PF-143], for which the “Organism, effect: P. aeruginosa” value in assay [1] (P. aeruginosa) was “P. aeruginosa (C)”. Moreover, in assay [2], the Activities entry is given as “G B”. For the same substance, the “Target(s)” value in assay [3] (setting [4]) was “S. epidermidis and MRSA and C. jeikeium”.

MQIFYIKTKIFLSFFLFLLIFSQCFYKIEE [PF-442]: the results for the “Organism, effect” value in assay [1] (MRSA) and in assay [1] (S. pneumoniae) were “MRSA (M)” and “S. pneumoniae (C)”, respectively. For the same substance, the Activities entry in assay [2] is on record as “G B”. Also, the “Target(s)” value in assay [3] (setting [4]) is reported as “S. epidermidis; also recorded: E. coli; also recorded: C. albicans; also recorded: S. pneumoniae; also recorded: E. faecalis”.

For the substance “NTNDLLQAFELMGLGMAGVFIVLGILYIVAELLIKIFPVNN [PF-C194]”, the figures for the “Organism, effect” value in assay [1] (F. nucleatum), in assay [1] (P. gingivalis) and in assay [1] (S. mutans) were “F. nucleatum (T)”, “P. gingivalis (T)” and “S. mutans (F)”, respectively. In addition, in assay [2], the Activities entry was “G B”. Moreover, the “Target(s)” value in assay [3] (setting [4]) is listed as “A. naeslundii; also recorded: F. nucleatum; also recorded: P. gingivalis; also recorded: S. mutans; also recorded: T. denticola”.

As to “PF-002: peptide having multiple activities (NDDAQ; Peptide with targeting and/or antimicrobial activity)”, the “Organism, effect: B. subtilis” value in assay [1] is listed as “B. subtilis (R)”. The “Organism, effect: S. pneumoniae” value in assay [1] (S. pneumoniae) is on record as “S. pneumoniae (H)”. For the same substance, the Activities result in assay [2] is “G B”. The “Target(s)” value in assay [3] (setting [5]) is “S. epidermidis; also recorded: P. mirabilis; also recorded: C. albicans; also recorded: C. jeikeium; also recorded: C. jejuni”.

Regarding “PF-003: peptide having multiple activities (MNNWIKVAQISVTVINEVIDIMKEKQNGGK; Peptide with targeting and/or antimicrobial activity)”, the “Organism, effect: C. jeikeium” value in assay [1] (C. jeikeium) was “C. jeikeium (A)”. Moreover, in assay [1], the “Organism, effect: M. luteus” value is listed as “M. luteus (A)” and the “Organism, effect: S. epidermidis” value is “S. epidermidis (D)”. Further, in assay [1] (MRSA), the “Organism, effect: MRSA” value was “MRSA (R)”. Moreover, in assay [2], the Activities result is “G B”. The “Target(s)” value in assay [3] (setting [5]) is “S. epidermidis and M. luteus and P. mirabilis and C. albicans and MRSA and C. jeikeium”.

With “PF-008: peptide having multiple activities (MIEIGSIAYLNGGSKKYNHILNQENR; Peptide with targeting and/or antimicrobial activity)”, the “Organism, effect: B. subtilis” value in assay [1] was “B. subtilis (D)”. The “Organism, effect: C. jejuni” value in assay [1] (C. jejuni) was “C. jejuni (R)”. The Activities result in assay [2] is “G B”. Besides, the “Target(s)” value in assay [3] (setting [5]) was “S. epidermidis and M. luteus and MRSA and C. jejuni”.

On to “PF-009: peptide having multiple activities (SKKYNHILNQENR; Peptide with targeting and/or antimicrobial activity)”, for which the “Organism, effect: S. epidermidis” value in assay [1] is “S. epidermidis (S)”. Moreover, the Activities result in assay [2] is recorded as “G B”. In addition, the “Target(s)” value in assay [3] (setting [5]) is reported as “M. luteus; also recorded: P. mirabilis; also recorded: C. albicans”.

Turning to “PF-010: peptide having multiple activities (MDIDVNKLLQAFVYFKSFEKLRHNNS; Peptide with targeting and/or antimicrobial activity)”, the “Organism, effect: C. jeikeium” value in assay [1] (C. jeikeium) is on record as “C. jeikeium (A)”. In assay [1], the “Organism, effect: M. luteus” value is “M. luteus (A)” and the “Organism, effect: S. epidermidis” value is on record as “S. epidermidis (S)”. In addition, the “Organism, effect: MRSA” value in assay [1] (MRSA) is given as “MRSA (R)”. For the same substance, in assay [2], the Activities entry was “G B”. In addition, the “Target(s)” value in assay [3] (setting [5]) is given as “S. epidermidis; also recorded: M. luteus; also recorded: E. coli; also recorded: C. albicans”.

With “PF-011: peptide having multiple activities (MFCYYKQHKGDNFSIEEVKNIIADNEMKVN; Peptide with targeting and/or antimicrobial activity)”, the “Organism, effect: C. jeikeium” value in assay [1] (C. jeikeium) is listed as “C. jeikeium (C)”. For the same substance, in assay [1] (MRSA), the “Organism, effect: MRSA” value is given as “MRSA (R)”. Further, the Activities result in assay [2] is reported as “G B”. Further, the “Target(s)” value in assay [3] (setting [5]) is reported as “M. luteus; also recorded: E. coli; also recorded: P. aeruginosa; also recorded: S. pneumoniae; also recorded: C. jeikeium”.

Turning to “PF-015: peptide having multiple activities (SIDKRNLYNLKYYE; Peptide with targeting and/or antimicrobial activity)”, the “Organism, effect: MRSA” value in assay [1] (MRSA) was “MRSA (W)”. The Activities entry in assay [2] is given as “G B”. In addition, the “Target(s)” value in assay [3] (setting [5]) is given as “E. faecalis; also recorded: C. jeikeium”.

Turning to “PF-017: peptide having multiple activities (ESIIE; Peptide with targeting and/or antimicrobial activity)”, in assay [1] (MRSA), the “Organism, effect: MRSA” value was “MRSA (M)”. Besides, in assay [2], the Activities entry is “G B”. In assay [3] (setting [5]), the “Target(s)” value is recorded as “E. coli”.

“PF-020: peptide having multiple activities (MKIILLLFLIFGFIVVVTLKSEHQLTLFSI; Peptide with targeting and/or antimicrobial activity)”: in assay [1], the “Organism, effect: M. luteus” value is on record as “M. luteus (C)” and the “Organism, effect: S. epidermidis” value is listed as “S. epidermidis (C)”. In addition, the “Organism, effect: MRSA” value in assay [1] (MRSA) is listed as “MRSA (C)”. The “Organism, effect: S. mutans” value in assay [1] (S. mutans, class symbol) is listed as “S. mutans (F)”. Moreover, the “Organism, effect: S. pneumoniae” value in assay [1] (S. pneumoniae) is “S. pneumoniae (D)”. Besides, the Activities result in assay [2] is on record as “G B”. Further, the “Target(s)” value in assay [3] (setting [5]) was “S. epidermidis and M. luteus and C. albicans and MRSA and S. pneumoniae and E. faecalis”.

For “PF-021: peptide having multiple activities (FSLNFSKQKYVTVN; Peptide with targeting and/or antimicrobial activity)”, the “Organism, effect: C. jeikeium” value in assay [1] (C. jeikeium) is on record as “C. jeikeium (R)”. In addition, in assay [1], the “Organism, effect: M. luteus” value is recorded as “M. luteus (A)” and the “Organism, effect: S. epidermidis” value is on record as “S. epidermidis (A)”. Also, in assay [1] (MRSA), the “Organism, effect: MRSA” value is listed as “MRSA (R)”. Besides, the Activities entry in assay [2] is recorded as “G B”. Also, the “Target(s)” value in assay [3] (setting [5]) is “S. epidermidis; also recorded: M. luteus; also recorded: P. mirabilis; also recorded: E. coli; also recorded: C. albicans; also recorded: E. faecalis; also recorded: C. jeikeium”.

For “PF-024: peptide having multiple activities (DLRKAK; Peptide with targeting and/or antimicrobial activity)”, in assay [1] (MRSA), the “Organism, effect: MRSA” value is given as “MRSA (M)”. In addition, the “Organism, effect: S. epidermidis” value in assay [1] is on record as “S. epidermidis (D)”. Moreover, the Activities result in assay [2] is on record as “G B”. Also, in assay [3] (setting [5]), the “Target(s)” value was “M. luteus and C. albicans and MRSA and E. faecalis and C. jeikeium”.

On to “PF-025: peptide having multiple activities (LLIIFRLWLELKWKNKK; Peptide with targeting and/or antimicrobial activity)”, for which, in assay [1] (C. jeikeium), the “Organism, effect: C. jeikeium” value is given as “C. jeikeium (A)”. Besides, in assay [1], the “Organism, effect: M. luteus” value was “M. luteus (A)” and the “Organism, effect: S. epidermidis” value is “S. epidermidis (S)”. Further, the “Organism, effect: MRSA” value in assay [1] (MRSA) is recorded as “MRSA (R)”. For the same substance, the Activities result in assay [2] is on record as “G B”. In addition, the “Target(s)” value in assay [3] (setting [5]) is “S. epidermidis and M. luteus and P. mirabilis and E. coli and P. aeruginosa and MRSA and E. faecalis and C. jejuni”.
